{"source": "patent US6939855B2", "about": "“Anti-inflammatory compositions and method” (Elan Pharmaceuticals, Inc., priority 1997, dated 2005)", "test_system": "human neutrophils", "test": "Expression of alpha-9 integrin on human neutrophils following activation", "assay_type": "cell-based", "settings": "compared to isotype control marker (FIG. 2)", "method": "In this experiment, alpha-9 subunit, alpha-4 subunit and beta-1 subunit were measured after reacting human neutrophils with fluorescently labeled antibodies specifically reactive with each of the foregoing subunits.\nFormyl-Met-Leu-Phe (fMLP) is an activation factor that is involved in inflammation. […] This increased expression is consistent with alpha-9 involvement in activation of neutrophils during inflammation.", "data": [{"substance": "Formyl-Met-Leu-Phe [fMLP]", "values": [{"measurement": "alpha-9 integrin expression following activation", "result": "significantly and selectively increased"}]}]}
